According to EP4799637A1, “NASAL ADMINISTRATION COMPOSITION CONTAINING GLP-1 RECEPTOR AGONIST, AND PREPARATION METHOD THEREFOR AND USE THEREOF” (Zhongshan Wanhan Pharmaceutical Co., Ltd., priority 2023, dated 2025):

How the values were obtained:
[1] = Compatibility/stability study: HPLC main peak purity and impurities after storage in the dark at 40°C and 50°C; type: physicochemical; conditions: result in words
Experimental: The changes in semaglutide content and impurities in a semaglutide solution, semaglutide+different permeation promoter solutions, and semaglutide+different bacteriostatic agent solutions were determined under HPLC conditions in Example 1 after being stored in the dark for 10 days (10 D) at 40°C and 50°C, and the results were shown in Table 7.
The definitions of the hydrophilic impurities 1 and 2 and the hydrophobic impurity in Table 7 were shown in HPLC chromatograms of Formulations C1 to C4 shown in FIGS. 1-4 determined at 50°C on Day 10.
As a control, main peak intensities of compositions J and K in CN116942612A at 50°C on Day 5 were determined using the same method, both of which were below 95%.

[2] = parallel artificial membrane permeability assay (PAMPA) of semaglutide formulations with permeation promoters; type: in vitro ADME; conditions: Skin PAMPA, permeation promoters at the same concentration of 0.25% (w/v%)
Experimental: 1.1. Test objective: to investigate the differences in in-vitro permeability of semaglutide having a concentration of 10 mM in pH7.4 […] buffer by using the PAMPA method after the addition of different types and proportions of permeation promoters. An appropriate amount of 10 mM semaglutide mother liquor was weighed and placed in a liquid phase injection vial, and different permeation promoters were weighed and added correspondingly according to types and proportions listed in Table 1; a magnetic stirrer was added; the magnetic stirrer was turned on to adjust a rotation speed to 650 rpm; and the temperature of the magnetic stirrer was kept at 37°C, followed by stirring for later use. Table 1 • Donor wells solutions were solutions of Formulations 1-20; • An acceptor wells solution was pH 7.4 Prisma HT buffer. • 1) PAMPA membrane hydration: a Hydration Solution (Pion) was prepared (used at room temperature); donor wells of a PAMPA plate were carefully removed; 200 μl of Hydration Solution was added to each well, and whether each empty surface forms a curved surface due to surface tension was observed; and acceptor wells of the PAMPA plate were covered carefully, while air bubbles were avoided on contact surfaces. The Hydration Solution was kept moist and hydrated overnight, and the hydrated membrane will appear translucent or have white spots. […]

protective effect on semaglutide (inhibited degradation) [1]	permeation promoting effect [2]	Molecule
protective effect on semaglutide		benzalkonium chloride
	better permeation promoting effects	CCCCCCCCCCCC(=O)OCCOCCOCCOCCOCCOCCOCCOCCOCCOCCOCCOCCOCCOCCOCCOCCOCCOCCOCCOCCOCC(OCCOCCOCCOCCOCCOCCOCCOCCOCCOCCOCCOCCOCCOCCOCCOCCOCCOCCOCCOCCO)C1OCC(OCCOCCOCCOCCOCCOCCOCCOCCOCCOCCOCCOCCOCCOCCOCCOCCOCCOCCOCCOCCO)C1OCCOCCOCCOCCOCCOCCOCCOCCOCCOCCOCCOCCOCCOCCOCCOCCOCCOCCOCCOCCO (stereo not shown) [polysorbate-20]
	better permeation promoting effects	polyoxyethylene (8) dodecyl ether
	better permeation promoting effects	CCCCCCCCCCCCO[C@@H]1O[C@H](CO)[C@@H](O[C@H]2O[C@H](CO)[C@@H](O)[C@H](O)[C@H]2O)[C@H](O)[C@H]1O [dodecyl-β-D-maltoside]
